Results reported in US20260284208A1, “SYSTEM” (Oxford University Innovation Limited, priority 2023, published 2026).

System: library of 8,380 IKZF3 degrons (ZF-eGFP/mCherry reporter) in Jurkat cells
Experiment: Pooled library screen (FACS, NGS, limma voom LogFC of positive vs negative read counts)
Type: cell-based, human
Method: A library of 8,380 IKZF3 degrons was cloned into pLVX-Sprout to create the eGFP/mCherry protein degradation reporter plasmid pool. A lentivirus pool was then generated using the Lenti-X lentiviral vector production method.
Jurkat cells were transduced at a multiplicity of infection of <0.3 with the lentivirus vector library in order to maximise the number of cells with a single integration. Transductions were carried out in 6 well TC-treated cell culture dishes (Falcon) with 3×10^6 cells per well. Cells were incubated for 2 days at 37° C. and 5% CO2 before the supernatant was removed and replaced with fresh media. 6 days post-transduction, mCherry+ cells were isolated via FACS using the FACS Aria Fusion (BD) in a buffer containing PBS (Gibco), 2 mM EDTA (Gibco), 25 mM HEPES (Sigma) and 1% BSA (Sigma). 8 days later, cells were treated with DMSO or a thalidomide analog for 18 hours at 37° C. and 5% CO2. mCherry+GFPlow and NOT(mCherry+GFPlow) cells were sorted by FACS using the FACS Aria Fusion (BD). DMSO treated cells were used to set the mCherry+GFPlow gate and dead cells were excluded from sorting by staining cells with 1 μg/mL DAPI (ThermoFisher). gDNA was isolated using the Maxwell RSC 48 (Promega). gDNA from cells that were unsorted and untreated were also isolated to determine the library representation on the day of compound treatment. Throughout the screen >600× coverage of the library was maintained. 3 biological replicates were carried out with a new transduction taking place each time.
A two-step PCR was used where the first PCR (PCR1) amplified the integrated degron sequence from gDNA and the second PCR (PCR2) added Illumina adaptors and barcodes to permit multiplexing. See Supp F for PCR1 and PCR2 primers. Q5 Hot Start High-Fidelity 2× Master Mix (New England Biolabs) was used for both PCRs. Sufficient gDNA was amplified in PCR1 in order to maintain >600× coverage and amplicons were purified using solid phase reversible immobilization (SPRI) beads (Beckman Coulter). Purified PCR1 products were analysed on the Tapestation 4200 (Agilent) to confirm purity prior to proceeding to PCR2. Sufficient PCR1 product was amplified in PCR2 in order to maintain >600× coverage and amplicons were run on a 2% agarose TAE gel. Target bands were excised and purified using the NucleoSpin Gel and PCR Clean-up Kit (Machery Nagel). Amplicons were analysed on the Tapestation 4200 and quantified using Qubit dsDNA HS kit (ThermoFisher). PCR products were pooled and sequenced as paired-reads on the NovaSeq (Illumina) using a SP2 200 cycles kit (Illumina).
Count distributions, percentage of read mapping, library coverage and replicate correlation per sample were assessed for QC purposes.
To carry out the library screen, we used the same plasmid construct as in our earlier flow cytometry assays, but pooling all 8,380 mutants together into one Jurkat population, ensuring a copy number of one plasmid per cell (FIG. 4B). […] These GFP-negative cells were then separated from the remaining GFP-positive population using fluorescence activated cell sorting (FACS). These two populations were then sequenced and the relative abundance of every mutant in both populations compared to provide a log FC value for each mutant sequence. This value indicated how frequently a sequence is observed in the GFP-negative population relative to the GFP-positive population, and therefore how effective a degron it is for that particular IMID compound.

O=C1CCC(N2C(=O)c3ccccc3C2=O)C(=O)N1 (centres unmarked) [A32, 2-(2,6-dioxopiperidin-3-yl)isoindoline-1,3-dione]
A32_logFC (Degron-ID 794, SEQ ID NO 61, 46F_47E_49E_50I_52G_53A_54R_55F_67L): 3.549
A32_logFC (Degron-ID 834, SEQ ID NO 125, 46F_47E_49E_50V_52G_53A_54R_55F_67L): 3.292
A32_logFC (Degron-ID 911, SEQ ID NO 130, 46F_47E_49P_50I_52G_53A_54N_55F_67L): 3.269
A32_logFC (Degron-ID 914, SEQ ID NO 108, 46F_47E_49P_50I_52G_53A_54R_55F_67L): 3.367
A32_logFC (Degron-ID 915, SEQ ID NO 119, 46F_47E_49P_50I_52G_53A_54S_55F_67L): 3.325
A32_logFC (Degron-ID 917, SEQ ID NO 116, 46F_47E_49P_50I_52G_53A_54V_55F_67L): 3.331
A32_logFC (Degron-ID 1752, SEQ ID NO 91, 46F_47I_49E_50I_52G_53A_54P_55F_67L): 3.433
A32_logFC (Degron-ID 2392, SEQ ID NO 93, 46F_47L_49P_50V_52G_53A_54P_55F_67L): 3.414
A32_logFC (Degron-ID 2881, SEQ ID NO 123, 46F_47Q_49D_50I_52G_53A_54C_55F_67L): 3.299
A32_logFC (Degron-ID 2887, SEQ ID NO 82, 46F_47Q_49D_50I_52G_53A_54I_55F_67L): 3.467
A32_logFC (Degron-ID 2888, SEQ ID NO 126, 46F_47Q_49D_50I_52G_53A_54K_55F_67L): 3.282
A32_logFC (Degron-ID 2892, SEQ ID NO 112, 46F_47Q_49D_50I_52G_53A_54P_55F_67L): 3.346
A32_logFC (Degron-ID 2941, SEQ ID NO 79, 46F_47Q_49E_50I_52G_53A_54C_55F_67L): 3.477
A32_logFC (Degron-ID 2943, SEQ ID NO 71, 46F_47Q_49E_50I_52G_53A_54E_55F_67L): 3.525
A32_logFC (Degron-ID 2948, SEQ ID NO 84, 46F_47Q_49E_50I_52G_53A_54K_55F_67L): 3.461
A32_logFC (Degron-ID 2949, SEQ ID NO 65, 46F_47Q_49E_50I_52G_53A_54L_55F_67L): 3.534
A32_logFC (Degron-ID 2950, SEQ ID NO 54, 46F_47Q_49E_50I_52G_53A_54M_55F_67L): 3.574
A32_logFC (Degron-ID 2953, SEQ ID NO 58, 46F_47Q_49E_50I_52G_53A_54Q_55F_67L): 3.557
A32_logFC (Degron-ID 2956, SEQ ID NO 137, 46F_47Q_49E_50I_52G_53A_54T_55F_67L): 3.256
A32_logFC (Degron-ID 2988, SEQ ID NO 97, 46F_47Q_49E_50V_52G_53A_54K_55F_67L): 3.401
A32_logFC (Degron-ID 2990, SEQ ID NO 72, 46F_47Q_49E_50V_52G_53A_54M_55F_67L): 3.522
A32_logFC (Degron-ID 2991, SEQ ID NO 55, 46F_47Q_49E_50V_52G_53A_54N_55F_67L): 3.561
A32_logFC (Degron-ID 2992, SEQ ID NO 64, 46F_47Q_49E_50V_52G_53A_54P_55F_67L): 3.535
A32_logFC (Degron-ID 2995, SEQ ID NO 67, 46F_47Q_49E_50V_52G_53A_54S_55F_67L): 3.531
A32_logFC (Degron-ID 3000, SEQ ID NO 100, 46F_47Q_49N_50I_52G_53A_54A_55F_67L): 3.386
A32_logFC (Degron-ID 3001, SEQ ID NO 105, 46F_47Q_49N_50I_52G_53A_54C_55F_67L): 3.375
A32_logFC (Degron-ID 3007, SEQ ID NO 7, 46F_47Q_49N_50I_52G_53A_54I_55F_67L): 3.811
A32_logFC (Degron-ID 3008, SEQ ID NO 134, 46F_47Q_49N_50I_52G_53A_54K_55F_67L): 3.259
A32_logFC (Degron-ID 3013, SEQ ID NO 127, 46F_47Q_49N_50I_52G_53A_54Q_55F_67L): 3.279
A32_logFC (Degron-ID 3014, SEQ ID NO 133, 46F_47Q_49N_50I_52G_53A_54R_55F_67L): 3.262
A32_logFC (Degron-ID 3015, SEQ ID NO 114, 46F_47Q_49N_50I_52G_53A_54S_55F_67L): 3.343
A32_logFC (Degron-ID 3016, SEQ ID NO 6, 46F_47Q_49N_50I_52G_53A_54T_55F_67L): 3.867
A32_logFC (Degron-ID 3017, SEQ ID NO 80, 46F_47Q_49N_50I_52G_53A_54V_55F_67L): 3.473
A32_logFC (Degron-ID 3047, SEQ ID NO 106, 46F_47Q_49N_50V_52G_53A_54I_55F_67L): 3.374
A32_logFC (Degron-ID 3057, SEQ ID NO 94, 46F_47Q_49N_50V_52G_53A_54V_55F_67L): 3.409
A32_logFC (Degron-ID 3060, SEQ ID NO 68, 46F_47Q_49P_50I_52G_53A_54A_55F_67L): 3.529
A32_logFC (Degron-ID 3062, SEQ ID NO 8, 46F_47Q_49P_50I_52G_53A_54D_55F_67L): 3.806
A32_logFC (Degron-ID 3066, SEQ ID NO 120, 46F_47Q_49P_50I_52G_53A_54H_55F_67L): 3.318
A32_logFC (Degron-ID 3067, SEQ ID NO 10, 46F_47Q_49P_50I_52G_53A_54I_55F_67L): 3.792
A32_logFC (Degron-ID 3068, SEQ ID NO 90, 46F_47Q_49P_50I_52G_53A_54K_55F_67L): 3.436
A32_logFC (Degron-ID 3069, SEQ ID NO 107, 46F_47Q_49P_50I_52G_53A_54L_55F_67L): 3.373
A32_logFC (Degron-ID 3071, SEQ ID NO 50, 46F_47Q_49P_50I_52G_53A_54N_55F_67L): 3.58
A32_logFC (Degron-ID 3074, SEQ ID NO 62, 46F_47Q_49P_50I_52G_53A_54R_55F_67L): 3.549
A32_logFC (Degron-ID 3075, SEQ ID NO 11, 46F_47Q_49P_50I_52G_53A_54S_55F_67L): 3.79
A32_logFC (Degron-ID 3076, SEQ ID NO 56, 46F_47Q_49P_50I_52G_53A_54T_55F_67L): 3.56
A32_logFC (Degron-ID 3079, SEQ ID NO 109, 46F_47Q_49P_50I_52G_53A_54Y_55F_67L): 3.361
A32_logFC (Degron-ID 3080, SEQ ID NO 129, 46F_47Q_49P_50Q_52G_53A_54A_55F_67L): 3.273
A32_logFC (Degron-ID 3081, SEQ ID NO 138, 46F_47Q_49P_50Q_52G_53A_54C_55F_67L): 3.255
A32_logFC (Degron-ID 3097, SEQ ID NO 92, 46F_47Q_49P_50Q_52G_53A_54V_55F_67L): 3.423
A32_logFC (Degron-ID 3101, SEQ ID NO 83, 46F_47Q_49P_50V_52G_53A_54C_55F_67L): 3.465
